Laboratory results reported in PubChem BioAssay (NCI).
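96-well plates; 48 h exposure; 5 concentrations. Endpoints by linear interpolation between flanking doses. Not reached: highest tested concentration assigned. GI50 marks 50% less growth. TGI: concentration producing complete growth inhibition.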

What was measured:
Experiment in all cases: DTP human tumour cell line panel, 48 h
OVCAR-4 ovarian = test system: OVCAR-4 ovarian
HCT-15 colon = test system: HCT-15 colon
HCC-2998 colon = test system: HCC-2998 colon
SF-295 CNS = test system: SF-295 CNS
NCI-H23 lung = test system: NCI-H23 lung
UACC-62 melanoma = test system: UACC-62 melanoma
TK-10 renal = test system: TK-10 renal
NCI-H460 lung = test system: NCI-H460 lung
HL-60(TB) leukemia = test system: HL-60(TB) leukemia
PC-3 prostate = test system: PC-3 prostate

SMILES	TGI (OVCAR-4 ovarian) [µM]	TGI (HCT-15 colon) [µM]	TGI (HCC-2998 colon) [µM]	TGI (SF-295 CNS) [µM]	TGI (NCI-H23 lung) [µM]	TGI (UACC-62 melanoma) [µM]	TGI (TK-10 renal) [µM]	TGI (NCI-H460 lung) [µM]	TGI (HL-60(TB) leukemia) [µM]	GI50 (OVCAR-4 ovarian) [µM]	GI50 (HCT-15 colon) [µM]	GI50 (HCC-2998 colon) [µM]	GI50 (SF-295 CNS) [µM]	GI50 (NCI-H23 lung) [µM]	GI50 (PC-3 prostate) [µM]	TGI (PC-3 prostate) [µM]	GI50 (UACC-62 melanoma) [µM]	GI50 (NCI-H460 lung) [µM]	GI50 (HL-60(TB) leukemia) [µM]	GI50 (TK-10 renal) [µM]
COc1ccc2[nH]c3c(=O)[nH]ncc3c2c1	> 100	> 100	> 100	> 100	> 100	> 100	> 100	> 100	> 100	–	–	–	–	–	–	–	–	–	–	–
COC(=O)c1cc2c3c(ccc2[nH]1)N(C(=O)c1cc2c4c(ccc2[nH]1)N(C(=O)c1cc2c5c(ccc2[nH]1)N(C(N)=O)CC5)CC4)CC3	> 100	> 100	> 100	44	> 100	> 19.8	47	> 100	> 70.5	–	–	–	–	–	–	–	–	–	–	–
COc1ccc(NC(=O)c2sc3nc4c(cc3c2N)CCCC4)cc1	> 100	> 100	> 100	20.2	> 100	> 100	–	19.8	0.624	1.98	0.471	3.6	0.314	2.55	0.822	> 100	0.352	0.543	0.252	–
NC(=O)C(=O)n1ncc(Cl)c(Cl)c1=O	46.9	> 76.4	32.1	20.3	52.9	54.4	50.8	> 100	17.7	–	–	–	–	–	–	–	–	–	–	–
COc1ccc(/C=C(/C(=O)n2cnnn2)c2cc(OC)c(OC)c(OC)c2)cc1	> 100	> 100	–	> 100	> 100	> 100	> 100	> 100	> 100	40.5	2.03	–	3.24	5.54	4.03	> 100	3.1	3.75	2.77	7.59
CCC(=O)c1cc([N+](=O)[O-])c(Br)s1	3.65	8.21	31	31.6	49.2	28.8	28.1	20.9	–	1.86	2.47	15.2	15.5	17.3	10.3	24.4	14.4	6.17	–	13.8
CCN(CC)CCCCC1CCN(CC(=O)N2c3ccccc3NC(=O)CC2C)CC1 (stereo not given)	> 100	> 100	> 100	> 100	> 100	> 100	> 100	> 100	> 100	–	–	–	–	–	–	–	–	–	–	–
O=C(O)[C@@H]1CCCC[C@@H]1C(=O)N(C1CCCCC1)C1CCCCC1	> 100	> 100	> 100	> 100	> 100	> 100	> 100	> 100	> 100	–	–	–	–	–	–	–	–	–	–	–
CC12OC(C(=O)C13CCC3)C1C(=O)c3ccccc3C(=O)C12 (stereo not given)	–	> 100	–	–	> 100	–	> 100	> 100	> 100	–	> 100	–	–	38	70.7	> 100	–	> 100	52	92.5
O=C(O)C1C2C=CC(O2)C1C(=O)Nc1ncccn1 (stereo not given)	> 100	> 100	–	> 100	> 100	> 100	> 100	> 100	> 100	–	–	–	–	–	–	> 100	–	–	–	–
